{
  "source": "patent US7396837B2",
  "about": "“Antitumoral analogs of lamellarins” (Pharma Mar, S.A.U., priority 2002, dated 2008)",
  "format_in_all_cases": "cell-based",
  "key": {"[1]": {"tested_on": "SK-MEL-28", "experiment": "SRB colorimetric cell growth inhibition assay, SK-MEL-28", "settings": "Homo sapiens, SK-MEL-28, MEL-28", "summary_of_the_method": "(§1)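 Read-out: sulforhodamine B colorimetry of surviving cell mass after continued exposure of human tumour lines to sample. Values are means ± SD of three wells, expressed as GI, TGI or LC.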"}, "[2]": {"tested_on": "PANC-1", "experiment": "SRB colorimetric cell growth inhibition assay, PANC-1", "settings": "Homo sapiens, PANC-1, PANC-1", "summary_of_the_method": "as §1"}, "[3]": {"tested_on": "IGROV", "experiment": "SRB colorimetric cell growth inhibition assay, IGROV", "settings": "Homo sapiens, IGROV", "summary_of_the_method": "as §1"}, "[4]": {"tested_on": "HeLa-APL", "experiment": "SRB colorimetric cell growth inhibition assay, HeLa-APL (aplidine resistant)", "settings": "Homo sapiens, HELA-APL", "summary_of_the_method": "as §1"}, "[5]": {"tested_on": "LNCaP", "experiment": "SRB colorimetric cell growth inhibition assay, LNCaP", "settings": "Homo sapiens, LNCaP, LN-caP", "source_text": "(§2) The finality of these assays is to interrupt the growth of an “in vitro” tumor cell culture by means a continued exhibition of the cells to the sample to be testing.\n(§3) A colorimetric type of assay, using sulforhodamine B (SRB) reaction has been adapted for a quantitative measurement of cell growth and viability (following the technique described by P. A. Skehan, et al., J. Natl. Cancer Inst. 1990, 82, 1107-1112).\n(§4) This form of assay employs 96 well cell culture microplates of 9 mm diameter (T. Mosmann et al., J. of Immunological Methods 1983, 65, 55-63; G. T. Faircloth et al., J. of Tissue and Culture Methods 1988, 11, 201-205).\n(§5) Most of the cell lines are obtained from American Type Culture Collection (ATCC) derived from different human cancer types.\n(§6) The values for mean +/− SD of data from triplicate wells are calculated. Some parameters for cellular responses can be calculated: GI=growth inhibition, TGI=total growth inhibition (cytostatic effect) and LC=cell killing (cytotoxic effect)."}, "[6]": {"tested_on": "K-562", "experiment": "SRB colorimetric cell growth inhibition assay, K-562", "settings": "Homo sapiens, K562, K-562", "source_text": "as §2, §3, §4, §5, §6"}, "[7]": {"tested_on": "IGROV-ET", "experiment": "SRB colorimetric cell growth inhibition assay, IGROV-ET (ET-743 resistant)", "settings": "Homo sapiens, IGROV-ET", "summary_of_the_method": "as §1"}, "[8]": {"tested_on": "SK-BR-3", "experiment": "SRB colorimetric cell growth inhibition assay, SK-BR-3", "settings": "Homo sapiens, SK-BR-3, SK-BR-3", "summary_of_the_method": "as §1"}, "[9]": {"tested_on": "HeLa", "experiment": "SRB colorimetric cell growth inhibition assay, HeLa", "settings": "Homo sapiens, HeLa", "summary_of_the_method": "as §1"}, "[10]": {"tested_on": "HT-29", "experiment": "SRB colorimetric cell growth inhibition assay, HT-29", "settings": "Homo sapiens, HT-29, HT-29", "summary_of_the_method": "as §1"}, "[11]": {"tested_on": "A-549", "experiment": "SRB colorimetric cell growth inhibition assay, A-549", "settings": "Homo sapiens, A549, A-549", "summary_of_the_method": "as §1"}, "[12]": {"tested_on": "LoVo-Dox", "experiment": "SRB colorimetric cell growth inhibition assay, LoVo-Dox (MDR)", "settings": "Homo sapiens, LOVO-DOX", "summary_of_the_method": "as §1"}, "[13]": {"tested_on": "LoVo", "experiment": "SRB colorimetric cell growth inhibition assay, LoVo", "settings": "Homo sapiens, LoVo", "summary_of_the_method": "as §1"}, "[14]": {"tested_on": "DU-145", "experiment": "SRB colorimetric cell growth inhibition assay, DU-145", "settings": "Homo sapiens, DU-145, DU-145", "summary_of_the_method": "as §1"}},
  "data": [
    {"smiles": "COc1cc(-c2c3c4cc(OC)c(OC(C)C)cc4oc(=O)c3n3ccc4c([N+](=O)[O-])cccc4c23)ccc1OC(C)C", "note": "[Compound 54]", "values": [
      {"measurement": "GI50", "setting": "[1]; GI=growth inhibition, read-out: GI50 MEL-28", "result": 1.53, "unit": "µM"},
      {"measurement": "CC50", "setting": "[1]; LC=cell killing (cytotoxic effect), read-out: LC50 MEL-28", "result": 17.2, "unit": "µM"},
      {"measurement": "IC (TGI)", "setting": "[1]; TGI=total growth inhibition (cytostatic effect), read-out: TGI MEL-28", "result": 5.7, "unit": "µM"},
      {"measurement": "GI50", "setting": "[2]; GI=growth inhibition, read-out: GI50 PANC-1", "result": 0.711, "unit": "µM"},
      {"measurement": "CC50", "setting": "[2]; LC=cell killing (cytotoxic effect), read-out: LC50 PANC-1", "result": 17.2, "unit": "µM"},
      {"measurement": "IC (TGI)", "setting": "[2]; TGI=total growth inhibition (cytostatic effect), read-out: TGI PANC-1", "result": 2.59, "unit": "µM"},
      {"measurement": "GI50", "setting": "[3]; GI=growth inhibition, read-out: GI50 IGROV", "result": 0.884, "unit": "µM"},
      {"measurement": "CC50", "setting": "[3]; LC=cell killing (cytotoxic effect), read-out: LC50 IGROV", "result": 13.3, "unit": "µM"},
      {"measurement": "IC (TGI)", "setting": "[3]; TGI=total growth inhibition (cytostatic effect), read-out: TGI IGROV", "result": 4.02, "unit": "µM"},
      {"measurement": "GI50", "setting": "[4]; GI=growth inhibition, read-out: GI50 HELA-APL", "result": 3.83, "unit": "µM"},
      {"measurement": "CC50", "setting": "[4]; LC=cell killing (cytotoxic effect), read-out: LC50 HELA-APL", "result": 17.2, "unit": "µM"},
      {"measurement": "IC (TGI)", "setting": "[4]; TGI=total growth inhibition (cytostatic effect), read-out: TGI HELA-APL", "result": 17.2, "unit": "µM"},
      {"measurement": "GI50", "setting": "[5]; GI=growth inhibition, read-out: GI50 LN-caP", "result": 1.71, "unit": "µM"},
      {"measurement": "CC50", "setting": "[5]; LC=cell killing (cytotoxic effect), read-out: LC50 LN-caP", "result": 11.1, "unit": "µM"},
      {"measurement": "IC (TGI)", "setting": "[5]; TGI=total growth inhibition (cytostatic effect), read-out: TGI LN-caP", "result": 4.34, "unit": "µM"},
      {"measurement": "GI50", "setting": "[6]; GI=growth inhibition, read-out: GI50 K-562", "result": 3.76, "unit": "µM"},
      {"measurement": "CC50", "setting": "[6]; LC=cell killing (cytotoxic effect), read-out: LC50 K-562", "result": 17.2, "unit": "µM"},
      {"measurement": "IC (TGI)", "setting": "[6]; TGI=total growth inhibition (cytostatic effect), read-out: TGI K-562", "result": 14.2, "unit": "µM"},
      {"measurement": "GI50", "setting": "[7]; GI=growth inhibition, read-out: GI50 IGROV-ET", "result": 6.64, "unit": "µM"},
      {"measurement": "CC50", "setting": "[7]; LC=cell killing (cytotoxic effect), read-out: LC50 IGROV-ET", "result": 17.2, "unit": "µM"},
      {"measurement": "IC (TGI)", "setting": "[7]; TGI=total growth inhibition (cytostatic effect), read-out: TGI IGROV-ET", "result": 17.2, "unit": "µM"},
      {"measurement": "GI50", "setting": "[8]; GI=growth inhibition, read-out: GI50 SK-BR-3", "result": 1.05, "unit": "µM"},
      {"measurement": "CC50", "setting": "[8]; LC=cell killing (cytotoxic effect), read-out: LC50 SK-BR-3", "result": 17.2, "unit": "µM"},
      {"measurement": "IC (TGI)", "setting": "[8]; TGI=total growth inhibition (cytostatic effect), read-out: TGI SK-BR-3", "result": 4.31, "unit": "µM"},
      {"measurement": "GI50", "setting": "[9]; GI=growth inhibition, read-out: GI50 HELA", "result": 0.616, "unit": "µM"},
      {"measurement": "CC50", "setting": "[9]; LC=cell killing (cytotoxic effect), read-out: LC50 HELA", "result": 17.2, "unit": "µM"},
      {"measurement": "IC (TGI)", "setting": "[9]; TGI=total growth inhibition (cytostatic effect), read-out: TGI HELA", "result": 2.71, "unit": "µM"},
      {"measurement": "GI50", "setting": "[10]; GI=growth inhibition, read-out: GI50 HT-29", "result": 1.52, "unit": "µM"},
      {"measurement": "CC50", "setting": "[10]; LC=cell killing (cytotoxic effect), read-out: LC50 HT-29", "result": 17.2, "unit": "µM"},
      {"measurement": "IC (TGI)", "setting": "[10]; TGI=total growth inhibition (cytostatic effect), read-out: TGI HT-29", "result": 17.2, "unit": "µM"},
      {"measurement": "GI50", "setting": "[11]; GI=growth inhibition, read-out: GI50 A-549", "result": 2.85, "unit": "µM"},
      {"measurement": "CC50", "setting": "[11]; LC=cell killing (cytotoxic effect), read-out: LC50 A-549", "result": 17.2, "unit": "µM"},
      {"measurement": "IC (TGI)", "setting": "[11]; TGI=total growth inhibition (cytostatic effect), read-out: TGI A-549", "result": 15.1, "unit": "µM"},
      {"measurement": "GI50", "setting": "[12]; GI=growth inhibition, read-out: GI50 LOVO-DOX", "result": 12.5, "unit": "µM"},
      {"measurement": "CC50", "setting": "[12]; LC=cell killing (cytotoxic effect), read-out: LC50 LOVO-DOX", "result": 17.2, "unit": "µM"},
      {"measurement": "IC (TGI)", "setting": "[12]; TGI=total growth inhibition (cytostatic effect), read-out: TGI LOVO-DOX", "result": 17.2, "unit": "µM"},
      {"measurement": "GI50", "setting": "[13]; GI=growth inhibition, read-out: GI50 LOVO", "result": 3.4, "unit": "µM"},
      {"measurement": "CC50", "setting": "[13]; LC=cell killing (cytotoxic effect), read-out: LC50 LOVO", "result": 17.2, "unit": "µM"},
      {"measurement": "IC (TGI)", "setting": "[13]; TGI=total growth inhibition (cytostatic effect), read-out: TGI LOVO", "result": 8.94, "unit": "µM"},
      {"measurement": "GI50", "setting": "[14]; GI=growth inhibition, read-out: GI50 DU-145", "result": 2.88, "unit": "µM"},
      {"measurement": "CC50", "setting": "[14]; LC=cell killing (cytotoxic effect), read-out: LC50 DU-145", "result": 17.2, "unit": "µM"},
      {"measurement": "IC (TGI)", "setting": "[14]; TGI=total growth inhibition (cytostatic effect), read-out: TGI DU-145", "result": 7.16, "unit": "µM"}
    ]}
  ]
}
